This assay addresses T1, human V1a receptor (Homo sapiens, UniProt P37288).
T1 construct: expressed in transfected cells; host or cells: HEK293 cells, transiently transfected; cell membranes
Put plainly: human V1a receptor binding study (3H-Vasopressin SPA, HEK293 membranes). Particulars: membranes of HEK293 cells transiently transfected with human V1a receptor, Ki by Cheng-Prusoff, read-out: pKi (hV1a) (converted). As for the experimental part:
The human V1a receptor was cloned by RT-PCR from total human liver RNA. The coding sequence was subcloned in an expression vector after sequencing to confirm the identity of the amplified sequence. […] Cell membranes were prepared from HEK293 cells transiently transfected with the expression vector and grown in 20 liter fermenters with the following protocol.
50 g of cells are re-suspended in 30 ml freshly prepared ice cold Lysis buffer (50 mM HEPES, 1 mM EDTA, 10 mM MgCl2 adjusted to pH=7.4+complete cocktail of protease inhibitor (Roche Diagnostics)). Homogenized with Polytron for 1 min and sonicated on ice for 2× 2 minutes at 80% intensity (Vibracell sonicator). The preparation is centrifuged 20 min at 500 g at 4° C., the pellet is discarded and the supernatant centrifuged 1 hour at 43′000 g at 4° C. (19′000 rpm). The pellet is re-suspended in 12.5 ml Lysis buffer+12.5 ml Sucrose 20% and homogenized using a Polytron for 1-2 min. The protein concentration is determined by the Bradford method and aliquots are stored at −80° C. until use. For binding studies 60 mg Yttrium silicate SPA beads (Amersham) are mixed with an aliquot of membrane in binding buffer (50 mM Tris, 120 mM NaCl, 5 mM KCl, 2 mM CaCl2, 10 mM MgCl2) for 15 minutes with mixing. 50 μl of bead/membrane mixture is then added to each well of a 96 well plate, followed by 50 μl of 4 nM 3H-Vasopressin (American Radiolabeled Chemicals). For total binding measurement 100 μl of binding buffer are added to the respective wells, for non-specific binding 100 μl of […] cold vasopressin and for compound testing 100 μl of a serial dilution of each compound in 2% DMSO. The plate is incubated 1 h at room temperature, centrifuged […] at 1000 g and counted on a Packard Top-Count. Non-specific binding counts are subtracted from each well and data is normalized to the maximum specific binding set at 100%. To calculate an IC 50 the curve is fitted using a non-linear regression model (XLfit) and the Ki is calculated using the Cheng-Prussoff equation.
T1 sequence (P37288 whole entry): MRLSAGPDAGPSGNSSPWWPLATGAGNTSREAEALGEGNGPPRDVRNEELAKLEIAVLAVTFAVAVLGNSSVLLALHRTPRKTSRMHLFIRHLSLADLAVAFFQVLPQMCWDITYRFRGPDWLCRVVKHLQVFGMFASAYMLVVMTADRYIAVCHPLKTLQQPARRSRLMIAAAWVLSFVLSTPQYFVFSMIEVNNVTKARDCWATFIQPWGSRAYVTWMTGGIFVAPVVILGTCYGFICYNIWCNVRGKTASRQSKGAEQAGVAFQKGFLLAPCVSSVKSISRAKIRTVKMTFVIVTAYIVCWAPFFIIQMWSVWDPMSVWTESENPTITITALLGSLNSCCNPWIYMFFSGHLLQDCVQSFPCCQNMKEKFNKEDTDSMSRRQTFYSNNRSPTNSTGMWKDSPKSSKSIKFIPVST
With `Cc1cc(Cc2nnc([C@H]3CC[C@H](Oc4ccccn4)CC3)n2-c2ccc(Cl)cc2)no1` [Example 1, trans-3-[[4-(4-Chlorophenyl)-5-(4-pyridin-2-yloxycyclohexyl)-1,2,4-triazol-3-yl]methyl]-5-methyl-1,2-oxazole], the Ki is 170 pM.

As for `Clc1ccc(-n2c(Cc3ccon3)nnc2[C@H]2CC[C@H](Oc3ccccn3)CC2)cc1` [Example 2, trans-3-[[4-(4-Chlorophenyl)-5-(4-pyridin-2-yloxycyclohexyl)-1,2,4-triazol-3-yl]methyl]-1,2-oxazole], the Ki is 229 pM.

In the case of `Clc1ccc(-n2c(Cc3ccno3)nnc2[C@H]2CC[C@H](Oc3ccccn3)CC2)cc1` [Example 3, trans-5-[[4-(4-Chlorophenyl)-5-(4-pyridin-2-yloxycyclohexyl)-1,2,4-triazol-3-yl]methyl]-1,2-oxazole], the Ki was 229 pM.

With `Clc1ccc(-n2c(Cn3cccn3)nnc2[C@H]2CC[C@H](Oc3ccccn3)CC2)cc1` [Example 4, trans-2-[4-[4-(4-Chlorophenyl)-5-(pyrazol-1-ylmethyl)-1,2,4-triazol-3-yl]cyclohexyl]oxypyridine], the Ki is 347 pM.

For `Clc1ccc(-n2c(Cn3nccn3)nnc2[C@H]2CC[C@H](Oc3ccccn3)CC2)cc1` [Example 5, trans-2-[4-[4-(4-Chlorophenyl)-5-(triazol-2-ylmethyl)-1,2,4-triazol-3-yl]cyclohexyl]oxypyridine], the Ki was 151 pM.

In the case of `Clc1ccc(-n2c(Cn3nccn3)nnc2[C@H]2CC[C@@H](Oc3ccccn3)CC2)cc1` [Example 6, cis-2-[4-[4-(4-Chlorophenyl)-5-(triazol-2-ylmethyl)-1,2,4-triazol-3-yl]cyclohexyl]oxypyridine], the Ki is 871 pM.

`Clc1ccc(-n2c(Cn3ccnn3)nnc2[C@H]2CC[C@H](Oc3ccccn3)CC2)cc1` [Example 7, trans-2-[4-[4-(4-Chlorophenyl)-5-(triazol-1-ylmethyl)-1,2,4-triazol-3-yl]cyclohexyl]oxypyridine]: the Ki was 3630 pM.

As to `Clc1ccc(-n2c(Cn3ccnc3)nnc2[C@H]2CC[C@H](Oc3ccccn3)CC2)cc1` [Example 8, trans-2-[4-[4-(4-Chlorophenyl)-5-(imidazol-1-ylmethyl)-1,2,4-triazol-3-yl]cyclohexyl]oxypyridine], the Ki was 3630 pM.

Turning to `Clc1ccc(-n2c(Cn3cncn3)nnc2[C@H]2CC[C@H](Oc3ccccn3)CC2)cc1` [Example 9, trans-2-[4-[4-(4-Chlorophenyl)-5-(1,2,4-triazol-1-ylmethyl)-1,2,4-triazol-3-yl]cyclohexyl]oxypyridine], the Ki is 7940 pM.

On to `Clc1ccc(-n2c(Cn3cnnn3)nnc2[C@H]2CC[C@H](Oc3ccccn3)CC2)cc1` [Example 10, trans-2-[4-[4-(4-Chlorophenyl)-5-(tetrazol-1-ylmethyl)-1,2,4-triazol-3-yl]cyclohexyl]oxypyridine], for which the Ki is 9120 pM.

These data come from US20230150995A1, “HETEROARYL-METHYL SUBSTITUTED TRIAZOLES” (Hoffmann-La Roche Inc., priority 2020, published 2023).
